Measurements as given in patent US5430157A, “Reduced phenanthrenes” (Eli Lilly and Company, priority 1993, dated 1995).

Biological target: T1, Type II 5α-reductase from human prostate (Homo sapiens, UniProt P31213)
T1 construct: Human prostate tissue from prostate surgeries was obtained immediately after surgery, frozen on dry ice; from tissue; host or cells: human prostate tissue from surgery; homogenate, 100,000 x g pellet resuspended
T1 sequence (P31213 1-254): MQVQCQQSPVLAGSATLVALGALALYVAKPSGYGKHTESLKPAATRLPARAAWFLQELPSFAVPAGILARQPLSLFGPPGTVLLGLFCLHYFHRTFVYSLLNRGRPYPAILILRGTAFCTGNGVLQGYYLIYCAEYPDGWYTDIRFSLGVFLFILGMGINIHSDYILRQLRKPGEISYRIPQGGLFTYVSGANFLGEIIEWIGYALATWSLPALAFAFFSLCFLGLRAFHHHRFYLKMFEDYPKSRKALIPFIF
Assay: Human Type II steroid 5α-reductase assay (conversion of [3H]-testosterone to DHT)
Type: biochemical
Conditions: human prostate enzyme preparation, 50 nM [3H]-testosterone, pH 5.5, 30 min at 25°, compared to control reaction mixtures; read-out: 50% inhibitory concentration
Experimental: Methodology of Human Type II Steroid 5α-Reductase Assays
Preparation of Type II 5α-Reductase from Human Prostate:
Human prostate tissue from prostate surgeries was obtained immediately after surgery, frozen on dry ice and stored at -80° C. The tissue was frozen with liquid nitrogen and pulverized to powder. The powder was homogenized in ice-cold buffer (20 mM sodium phosphate, pH 6.5) using a Brinkmann Polvtron (Westbury, N.Y.) with a PTA 10-S probe and a setting of 7. The homogenization procedure consisted of four 15 second pulses. Connective tissue was cleared from the probe with forceps between pulses. […]
This enzyme assay is based on the conversion of [^3 H]-testosterone to [^3 H]-5α-dihydrotestosterone (DHT) and other 5α-reduced metabolites. […] Essentially no androsterone was detected. […]
The [^3 H]-testosterone substrate and its metabolites were separated by chromatography using a C-18 reversed phase column (Beckman Ultrasphere 5 μm spherical 80A pore, part no. 235329, 4.6 mm i.d..div.25 mm length) with an isocratic mobile phase (46 water: 46 methanol: 8 tetrahydrofuran by volume). […] A 400 μl aliquot was injected onto the column and radioactivity was determined using a Beckman 171 in-line flow radioisotope detector in conjunction with Rainin Dynamax™ software and a Macintosh computer. […]

Structure (SMILES)	IC50 [µM]
C[C@]12CCC(C(=O)O)=CC1=CCc1cc(Cl)ccc12 [Example 1, (-)-2-Chloro-4b-methyl-4b,5,6,10-tetrahydrophenanthrene-7-carboxylic acid]	0.15
C[C@]12CCC(c3nnn[nH]3)=CC1=CCc1cc(Cl)ccc12 [Example 2, (-)-2-Chloro-4b-methyl-4b,5,6,10-tetrahydrophenanthrene-7-(1-tetrazole)]	0.6
